Assay results: the supplement of paper PMC11208160

Assay: recombinant barcode read abundance after kanamycin selection (control-corrected) (log10(CPM+1)); higher = more efficient recombination; sequences stand for … in AGTGCAGAGAAAATCGGCCAGTTTTCTCTGCCTGCAGTCCGCATGCCGT…AGATTTATGCAGCGGACTGCCTTTCTCCCAAAGTGATAAACCGGACAGTATCATGGACCGGTTTTCCCGGTAATCCGTATTTGCAAGGTTGGTTTCACT; site = the 11-nt target
How it was run: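 In a pooled screen in E. coli, targets were paired with target-binding loops of the IS621 bridge RNA. Each oligo carried a promoter, a target, a barcode and the first 104 bridge RNA bases driven by J23119, and was Gibson-cloned into a vector holding the remaining 73 bp and a T7-inducible recombinase before co-electroporation with a donor plasmid. Duplicate platings went onto chloramphenicol/ampicillin LB agar as the control or onto chloramphenicol/ampicillin/kanamycin with 0.1 mM IPTG. Recombination efficiency is the averaged, control-corrected count per million of barcodes at recombinant junctions, given as log10(CPM+1).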
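Also: IS621 recombinase and bridge RNA in Escherichia coli cells.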

Sequence | recombinant barcode read abundance (log10)
TGTAATGCTTGGGTTCTAACCTGTTGCCT (site TGTAATACTAG) | 0.0123
TGTAATGCTTGGGTTCTAACCTGTTGCCT (site TGTAATCCTAG) | 0.181
TGTAATGCTTGGGTTCTAACCTGTTGCCT (site TGTAATGCTAG) | 0.912
TGTAATGCTTGGGTTCTAACCTGTTGCCT (site TGTAATTCTAG) | 0.181
TGTAATTCTTGGGTTCTAACCTGTTGCCT (site TGTAATACTAG) | 0.139
TGTAATTCTTGGGTTCTAACCTGTTGCCT (site TGTAATCCTAG) | 0.0849
TGTAATTCTTGGGTTCTAACCTGTTGCCT (site TGTAATGCTAG) | 0
TGTAATTCTTGGGTTCTAACCTGTTGCCT (site TGTAATTCTAG) | 0.18
TGTCAAACTTGGGTTCTAACCTGTTGCGT (site TGTCAAACTAC) | 0.838
TGTCAAACTTGGGTTCTAACCTGTTGCGT (site TGTCAACCTAC) | 0.0278
TGTCGAGCTTGGGTTCTAACCTGTTGCCG (site TGTAGAGCTCG) | 0.0366
TGTCGAGCTTGGGTTCTAACCTGTTGCCG (site TGTCGAGCTCG) | 0.107
TGTCGAGCTTGGGTTCTAACCTGTTGCCG (site TGTGGAGCTCG) | 0.0604
TGTCGAGCTTGGGTTCTAACCTGTTGCCG (site TGTTGAGCTCG) | 0.106
TGTCGCTCTTGGGTTCTAACCTGTTGCCT (site TGACGCTCTAG) | 0.0464
TGTCGCTCTTGGGTTCTAACCTGTTGCCT (site TGCCGCTCTAG) | 0.0379
TGTCGCTCTTGGGTTCTAACCTGTTGCCT (site TGGCGCTCTAG) | 0.129
TGTCGCTCTTGGGTTCTAACCTGTTGCCT (site TGTCGCTCTAG) | 1.1

Sequence | recombinant barcode read abundance (log10)
TGTCGGACTTGGGTTCTAACCTGTTGCAA (site TGTCGGACTAT) | 0.146
TGTCGGACTTGGGTTCTAACCTGTTGCAA (site TGTCGGACTCT) | 0.149
TGTCGGACTTGGGTTCTAACCTGTTGCAA (site TGTCGGACTGT) | 0.0423
TGTCGGACTTGGGTTCTAACCTGTTGCAA (site TGTCGGACTTT) | 0.421
TGTCGGACTTGGGTTCTAACCTGTTGCAT (site TGTCGGACTAT) | 1.32
TGTCGGACTTGGGTTCTAACCTGTTGCAT (site TGTCGGACTCT) | 0.18
TGTCGGACTTGGGTTCTAACCTGTTGCAT (site TGTCGGACTGT) | 0.0199
TGTCGGACTTGGGTTCTAACCTGTTGCAT (site TGTCGGACTTT) | 0.0384
TGTCTACCTTGGGTTCTAACCTGTTGCTA (site TGTCTACCTTA) | 0.103
TGTCTACCTTGGGTTCTAACCTGTTGCTA (site TGTCTCCCTAA) | 0.209
TGTCTCCCTTGGGTTCTAACCTGTTGCGT (site GAAGAGGCTTG) | 0.154
TGTCTCCCTTGGGTTCTAACCTGTTGCGT (site TGTCTCCCTAC) | 1.04
TGTCTGTCTTGGGTTCTAACCTGTTGCTT (site TGTCTGTCTAA) | 0.186
TGTCTGTCTTGGGTTCTAACCTGTTGCTT (site TGTCTGTCTTA) | 0.0372
TGTGACTCTTGGGTTCTAACCTGTTGCCT (site TGAGACTCTAG) | 0.088
TGTGACTCTTGGGTTCTAACCTGTTGCCT (site TGCGACTCTAG) | 0.0199
TGTGACTCTTGGGTTCTAACCTGTTGCCT (site TGGGACTCTAG) | 0.0547
TGTGACTCTTGGGTTCTAACCTGTTGCCT (site TGTGACTCTAG) | 0.912
